Drawing on ChEMBL document CHEMBL1201862, “PubChem BioAssay data set” (2004), this text covers IC50, AC50 and EC50 for three compounds.

Assay [1] has as its target T1, Tyrosine-protein phosphatase non-receptor type 7 (Homo sapiens, UniProt P35236).
T1 sequence (P35236 whole entry): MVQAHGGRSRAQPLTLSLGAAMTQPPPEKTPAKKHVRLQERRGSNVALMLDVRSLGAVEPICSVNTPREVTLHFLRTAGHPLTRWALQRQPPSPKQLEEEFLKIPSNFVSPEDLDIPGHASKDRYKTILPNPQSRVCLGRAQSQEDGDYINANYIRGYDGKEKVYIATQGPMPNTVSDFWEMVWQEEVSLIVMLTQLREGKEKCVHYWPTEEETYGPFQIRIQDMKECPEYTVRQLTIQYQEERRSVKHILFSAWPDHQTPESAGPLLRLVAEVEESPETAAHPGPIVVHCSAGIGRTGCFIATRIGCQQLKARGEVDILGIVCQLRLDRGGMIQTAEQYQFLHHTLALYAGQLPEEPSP
Format: functional.

Assay [2] has as its target Glyceraldehyde-3-phosphate dehydrogenase (Homo sapiens, UniProt P04406).
Assay [3] has as its target T2, Dual specificity protein phosphatase 6 (Rattus norvegicus, UniProt Q64346).
T2 sequence (Q64346 whole entry): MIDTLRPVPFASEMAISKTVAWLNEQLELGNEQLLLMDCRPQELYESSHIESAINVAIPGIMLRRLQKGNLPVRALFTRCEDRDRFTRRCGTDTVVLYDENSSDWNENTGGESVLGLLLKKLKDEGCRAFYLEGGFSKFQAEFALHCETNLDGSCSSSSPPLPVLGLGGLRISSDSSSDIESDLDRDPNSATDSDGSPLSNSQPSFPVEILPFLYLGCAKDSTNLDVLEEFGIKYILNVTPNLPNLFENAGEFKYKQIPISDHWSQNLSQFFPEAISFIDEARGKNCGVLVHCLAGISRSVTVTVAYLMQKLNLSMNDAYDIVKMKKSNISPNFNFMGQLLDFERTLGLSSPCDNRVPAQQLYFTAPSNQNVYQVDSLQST

Assay [4] has as its target T3, Dual specificity protein phosphatase 3 (Homo sapiens, UniProt P51452). The assay is described as follows: SAR VHR1 Fluorescent Assay for In Vitro dose response studies. [Related pubchem assays (depositor defined):AID1654, AID1661, AID1878, AID1992, AID2004, AID2070, AID2085]. Format: functional.
The target of assay [5] is T3, Dual specificity protein phosphatase 3. Briefly: MOA VHR1 Fluorescent secondary assay for identification of redox-state modulating compounds. [Related pubchem assays (depositor defined):AID1654, AID1661, AID1878, AID1957].
Assay [6] concerns the target T1, Tyrosine-protein phosphatase non-receptor type 7. Briefly: redox-dependent HePTP inhibition, mechanism study, biochemical, fluorescence (AID 2068). Format: functional.
The target in assay [7] is T2, Dual specificity protein phosphatase 6. Format: functional.
The target of assay [8] is T4, Aminopeptidase N (Plasmodium falciparum FcB1/Columbia, UniProt O96935).
T4 sequence (O96935 whole entry): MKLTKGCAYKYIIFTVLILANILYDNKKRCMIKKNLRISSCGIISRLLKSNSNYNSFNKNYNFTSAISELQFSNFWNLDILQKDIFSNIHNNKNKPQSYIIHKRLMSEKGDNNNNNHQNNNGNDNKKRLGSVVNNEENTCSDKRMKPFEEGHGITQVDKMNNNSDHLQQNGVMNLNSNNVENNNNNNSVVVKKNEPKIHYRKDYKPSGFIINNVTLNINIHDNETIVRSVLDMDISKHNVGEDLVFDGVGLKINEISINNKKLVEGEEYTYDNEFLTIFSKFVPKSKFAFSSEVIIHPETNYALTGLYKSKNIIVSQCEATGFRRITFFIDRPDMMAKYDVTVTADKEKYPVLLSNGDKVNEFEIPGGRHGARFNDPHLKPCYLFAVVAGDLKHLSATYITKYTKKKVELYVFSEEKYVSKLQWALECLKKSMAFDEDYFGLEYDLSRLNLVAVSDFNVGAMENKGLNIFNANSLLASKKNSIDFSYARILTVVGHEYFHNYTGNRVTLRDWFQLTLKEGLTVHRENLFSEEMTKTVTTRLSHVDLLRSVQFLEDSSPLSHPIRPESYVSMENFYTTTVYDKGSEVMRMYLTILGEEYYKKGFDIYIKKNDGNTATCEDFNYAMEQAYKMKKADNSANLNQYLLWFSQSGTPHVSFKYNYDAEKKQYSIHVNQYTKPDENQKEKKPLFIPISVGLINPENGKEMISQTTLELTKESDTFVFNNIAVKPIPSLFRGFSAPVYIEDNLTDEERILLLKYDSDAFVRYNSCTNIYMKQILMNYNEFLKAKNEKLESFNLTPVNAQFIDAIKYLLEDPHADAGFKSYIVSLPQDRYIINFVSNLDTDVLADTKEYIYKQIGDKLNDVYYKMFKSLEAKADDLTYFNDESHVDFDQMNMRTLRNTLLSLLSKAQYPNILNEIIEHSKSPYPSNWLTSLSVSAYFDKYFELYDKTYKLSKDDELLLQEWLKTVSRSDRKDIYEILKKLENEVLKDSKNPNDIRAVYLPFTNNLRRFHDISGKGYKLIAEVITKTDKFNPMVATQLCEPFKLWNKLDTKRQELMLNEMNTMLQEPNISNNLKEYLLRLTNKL
The assay is described as follows: P. falciparum M1AAP inhibitors, biochemical, fluorogenic H-Leu-NHMec substrate, 1536-well (AID 1445). Also noted: species or system Plasmodium falciparum 3D7, 3D7.

The target of assay [9] is Guanyl-specific ribonuclease T1 (Aspergillus oryzae (strain ATCC 42149 / RIB 40), UniProt P00651). The assay is described as follows: RNase T1 inhibitors, dose response, counter-screen for TPT1 inhibitor project, biochemical, fluorescence polarization, 1536-well (AID 2167).
Assay [10] has as its target Large T antigen (Simian virus 40, UniProt P03070). The class given is functional, Betapolyomavirus macacae.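 Also: Confirmatory-stage PubChem screen for compounds that inhibit SV40 T antigen.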
The target of assay [11] is Likely tRNA 2'-phosphotransferase (Candida albicans (strain SC5314 / ATCC MYA-2876) (Yeast), UniProt Q5A7N4). The assay is described as follows: TPT1 tRNA phosphotransferase inhibitors, dose response, biochemical, fluorescence polarization (AID 2160).
Assay [12] concerns the target T5, Calpain-2 catalytic subunit (Sus scrofa, UniProt P43367).
T5 sequence (P43367 whole entry): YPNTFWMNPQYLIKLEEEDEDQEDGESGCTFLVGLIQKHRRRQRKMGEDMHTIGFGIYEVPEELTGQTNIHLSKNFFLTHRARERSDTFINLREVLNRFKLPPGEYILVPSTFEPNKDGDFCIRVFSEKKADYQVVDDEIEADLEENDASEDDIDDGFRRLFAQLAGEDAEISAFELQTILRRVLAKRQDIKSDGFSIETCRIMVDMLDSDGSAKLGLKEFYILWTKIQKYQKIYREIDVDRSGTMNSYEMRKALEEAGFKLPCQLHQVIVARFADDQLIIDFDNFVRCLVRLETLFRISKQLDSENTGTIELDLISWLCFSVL
The assay is described as follows: pig calpain II inhibitor potency, dose response, biochemical, fluorogenic peptide substrate (AID 1420). Format: functional.

For assay [13], the target named is Bifunctional protein GlmU (Mycobacterium tuberculosis, UniProt P9WMN3). The assay is described as follows: Inhibitors of Mycobacterial Glucosamine-1-phosphate acetyl transferase (GlmU). Secondary screen. Also noted: species or system Mycobacterium tuberculosis H37Rv.
The target in assay [14] is Induced myeloid leukemia cell differentiation protein Mcl-1 (Homo sapiens, UniProt Q07820). The class given is functional.
Assay [15] has as its system HeLa. Briefly: HeLa cell cytotoxicity, dose response, cytotoxicity control, 24 h, cherry-picked samples (AID 504726).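 Also: potency for cytotoxicity as loss of luminescence signal.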 Format: functional, cell-based. Particulars: Homo sapiens.
Assay [16] addresses ORF 73 (Human herpesvirus 8, UniProt O40947). The assay is described as follows: inhibitors of C-LANA binding to LBS DNA, dose response, biochemical, fluorescence polarization, cherry-picked samples (AID 504725).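 Also: fluorescence polarization of a labeled DNA duplex reporting LANA DNA binding; potency is for inhibitors that block LANA binding to the DNA.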 Further details: species or system Human gammaherpesvirus 8. Background: Polarisation of emitted light reports the rotation of a fluorescent probe.
Assay [17] addresses Intestinal-type alkaline phosphatase (Homo sapiens, UniProt P09923). Briefly: activation of human intestinal alkaline phosphatase – biochemical, dose response (AID 488873). The class given is functional.
The target of assay [18] is Intestinal-type alkaline phosphatase (Mus musculus, UniProt P24822). Briefly: mouse intestinal alkaline phosphatase activators, dose response, biochemical, luminescence, uHTS hits (AID 488783). The class given is functional.
For assay [19], the target named is T6, Alkaline phosphatase, tissue-nonspecific isozyme (Homo sapiens, UniProt P05186).
T6 sequence (P05186 whole entry): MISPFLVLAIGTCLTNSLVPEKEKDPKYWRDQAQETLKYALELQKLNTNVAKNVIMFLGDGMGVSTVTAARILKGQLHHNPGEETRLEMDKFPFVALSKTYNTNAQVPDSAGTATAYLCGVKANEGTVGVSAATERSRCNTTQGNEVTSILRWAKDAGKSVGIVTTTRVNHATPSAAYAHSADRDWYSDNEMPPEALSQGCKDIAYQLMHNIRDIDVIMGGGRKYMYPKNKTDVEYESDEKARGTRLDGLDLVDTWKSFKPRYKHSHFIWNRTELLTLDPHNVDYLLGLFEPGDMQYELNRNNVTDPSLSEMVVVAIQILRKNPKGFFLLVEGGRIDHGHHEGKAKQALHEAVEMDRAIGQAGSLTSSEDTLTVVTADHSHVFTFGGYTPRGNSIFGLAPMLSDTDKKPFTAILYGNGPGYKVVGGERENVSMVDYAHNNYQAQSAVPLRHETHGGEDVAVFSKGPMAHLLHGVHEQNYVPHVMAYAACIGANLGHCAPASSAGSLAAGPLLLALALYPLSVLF
Briefly: TNAP enzyme activators, dose response, selectivity assay for mouse IAP activator project, biochemical, TNAP isozyme, mouse IAP uHTS hits (AID 488880). The class given is functional.

For assay [20], the target named is T7, Cysteine protease ATG4B (Homo sapiens, UniProt Q9Y4P1).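 Also: Fluorescence-based dose-response confirmation assay measuring inhibition of ATG4B activity.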
T7 sequence (Q9Y4P1 whole entry): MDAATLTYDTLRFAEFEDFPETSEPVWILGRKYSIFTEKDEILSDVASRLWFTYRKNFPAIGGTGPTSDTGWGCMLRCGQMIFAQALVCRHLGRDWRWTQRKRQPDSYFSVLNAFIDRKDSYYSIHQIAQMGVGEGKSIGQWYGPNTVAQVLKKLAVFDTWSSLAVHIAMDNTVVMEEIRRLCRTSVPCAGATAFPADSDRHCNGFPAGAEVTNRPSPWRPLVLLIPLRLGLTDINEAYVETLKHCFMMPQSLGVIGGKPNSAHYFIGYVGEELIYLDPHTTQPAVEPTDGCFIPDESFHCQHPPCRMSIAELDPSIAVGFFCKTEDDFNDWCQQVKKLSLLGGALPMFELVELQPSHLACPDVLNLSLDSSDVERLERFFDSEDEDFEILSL
The class given is functional.

Assay [21] concerns the target Phospholipase A2 (Homo sapiens, UniProt P04054). Format: functional.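 Also: confirmatory dose-response counterscreen on phospholipase A2, testing hits that came from an ultra-high-throughput screen for ATG4B inhibitors.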
In assay [22] the target is Mu-type opioid receptor (Homo sapiens, UniProt P35372). The assay is described as follows: SAR Analysis of Antagonists of the MOR Receptor using an Image-Based Assay - Set 3. [Related pubchem assays (depositor defined):AID1777, AID1785, AID1786, AID1966, AID2133, AID2136, AID2284, AID2285, AID2420]. The class given is functional.
Assay [23] addresses T8, Kappa-type opioid receptor (Homo sapiens, UniProt P41145). Briefly: SAR analysis of small molecule antagonists of the kappa opioid receptor via a luminescent beta-arrestin assay - Set 4. [Related pubchem assays (depositor defined):AID1777, AID1778, AID1785, AID1786, AID1966, AID2133, AID2136, AID2285]. The class given is functional.
Assay [24] concerns the target Delta-type opioid receptor (Homo sapiens, UniProt P41143). Briefly: SAR Analysis of Antagonists of the DOR Receptor using an Image-Based Assay - Set 3. [Related pubchem assays (depositor defined):AID1777, AID1785]. The class given is functional.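 Also: U2OS cells expressing DOR1 and beta-arrestin GFP stimulated with 100 nM SNC80; imaging of GFP-tagged beta-arrestin moving into spots after receptor activation.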
The target of assay [25] is T8, Kappa-type opioid receptor. The assay is described as follows: SAR analysis of Antagonists of the Kappa Opioid Receptor (KOR) using an Image-Based Assay - Set 4. [Related pubchem assays (depositor defined):AID1777, AID1785]. Format: functional.

Each structure is given as a SMILES string. Activity calls are given as the source filed them.

T3 sequence (P51452 whole entry): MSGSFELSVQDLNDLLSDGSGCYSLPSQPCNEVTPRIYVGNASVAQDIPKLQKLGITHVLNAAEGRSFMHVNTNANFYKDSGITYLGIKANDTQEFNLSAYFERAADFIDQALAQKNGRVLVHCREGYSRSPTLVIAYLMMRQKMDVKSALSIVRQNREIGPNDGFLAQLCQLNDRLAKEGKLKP
T8 sequence (P41145 whole entry): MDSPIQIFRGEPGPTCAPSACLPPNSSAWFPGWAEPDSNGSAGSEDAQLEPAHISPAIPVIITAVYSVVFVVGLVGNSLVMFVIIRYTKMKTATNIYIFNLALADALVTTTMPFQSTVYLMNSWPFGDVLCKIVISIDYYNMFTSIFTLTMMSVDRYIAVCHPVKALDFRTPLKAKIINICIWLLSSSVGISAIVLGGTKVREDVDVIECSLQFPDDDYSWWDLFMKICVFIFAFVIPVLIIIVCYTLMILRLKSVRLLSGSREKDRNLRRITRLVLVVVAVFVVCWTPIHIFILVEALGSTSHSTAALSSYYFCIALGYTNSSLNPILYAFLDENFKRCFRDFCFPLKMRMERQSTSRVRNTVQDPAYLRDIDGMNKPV
Sequence of ORF 73 (O40947 whole entry): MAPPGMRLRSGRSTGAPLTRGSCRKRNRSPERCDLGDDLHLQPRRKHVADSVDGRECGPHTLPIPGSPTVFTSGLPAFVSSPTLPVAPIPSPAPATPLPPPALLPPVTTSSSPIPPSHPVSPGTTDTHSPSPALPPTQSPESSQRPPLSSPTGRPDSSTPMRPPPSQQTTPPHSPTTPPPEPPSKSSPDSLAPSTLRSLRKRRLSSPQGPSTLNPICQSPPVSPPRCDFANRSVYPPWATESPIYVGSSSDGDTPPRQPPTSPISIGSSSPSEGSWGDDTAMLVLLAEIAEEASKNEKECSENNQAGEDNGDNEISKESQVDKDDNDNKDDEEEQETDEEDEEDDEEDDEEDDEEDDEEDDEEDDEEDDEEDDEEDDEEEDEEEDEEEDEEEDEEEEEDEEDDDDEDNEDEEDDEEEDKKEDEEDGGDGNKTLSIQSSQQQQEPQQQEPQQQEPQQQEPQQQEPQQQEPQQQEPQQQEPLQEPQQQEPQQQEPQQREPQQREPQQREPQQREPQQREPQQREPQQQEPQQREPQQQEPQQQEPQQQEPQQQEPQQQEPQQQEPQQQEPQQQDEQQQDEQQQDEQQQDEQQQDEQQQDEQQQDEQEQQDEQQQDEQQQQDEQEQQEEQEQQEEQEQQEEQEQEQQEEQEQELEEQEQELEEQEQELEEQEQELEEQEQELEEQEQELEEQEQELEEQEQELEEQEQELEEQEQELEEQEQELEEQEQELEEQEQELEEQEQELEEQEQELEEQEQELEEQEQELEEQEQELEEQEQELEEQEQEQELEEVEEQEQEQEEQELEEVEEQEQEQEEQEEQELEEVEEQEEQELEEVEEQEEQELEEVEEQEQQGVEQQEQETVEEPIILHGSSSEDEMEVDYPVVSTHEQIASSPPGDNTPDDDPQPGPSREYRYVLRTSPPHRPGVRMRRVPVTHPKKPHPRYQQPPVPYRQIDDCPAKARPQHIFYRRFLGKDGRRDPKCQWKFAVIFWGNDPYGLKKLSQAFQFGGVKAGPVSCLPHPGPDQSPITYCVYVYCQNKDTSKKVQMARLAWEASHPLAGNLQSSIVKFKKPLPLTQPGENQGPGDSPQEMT
Sequence of Mu-type opioid receptor (P35372 whole entry): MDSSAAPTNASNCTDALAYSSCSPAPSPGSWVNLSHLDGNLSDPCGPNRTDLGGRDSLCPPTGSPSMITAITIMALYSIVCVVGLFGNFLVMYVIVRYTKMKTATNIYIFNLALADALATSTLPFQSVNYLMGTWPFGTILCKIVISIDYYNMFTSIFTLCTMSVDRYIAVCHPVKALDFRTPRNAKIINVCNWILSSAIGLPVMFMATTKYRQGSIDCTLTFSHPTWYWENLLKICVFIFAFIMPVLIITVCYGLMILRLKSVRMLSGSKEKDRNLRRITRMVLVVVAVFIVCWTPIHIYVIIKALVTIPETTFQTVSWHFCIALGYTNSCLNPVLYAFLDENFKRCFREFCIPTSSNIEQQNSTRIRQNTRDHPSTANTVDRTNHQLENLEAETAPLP
Sequence of Glyceraldehyde-3-phosphate dehydrogenase (P04406 whole entry): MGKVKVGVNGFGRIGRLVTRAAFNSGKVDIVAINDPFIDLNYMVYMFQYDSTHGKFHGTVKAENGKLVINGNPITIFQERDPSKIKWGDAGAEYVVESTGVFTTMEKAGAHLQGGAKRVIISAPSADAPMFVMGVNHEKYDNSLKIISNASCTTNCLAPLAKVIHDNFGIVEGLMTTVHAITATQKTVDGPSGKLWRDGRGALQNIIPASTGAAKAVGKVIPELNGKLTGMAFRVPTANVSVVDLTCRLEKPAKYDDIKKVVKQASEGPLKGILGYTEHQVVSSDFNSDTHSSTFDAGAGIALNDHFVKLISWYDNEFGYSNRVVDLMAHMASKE
Sequence of Guanyl-specific ribonuclease T1 (P00651 whole entry): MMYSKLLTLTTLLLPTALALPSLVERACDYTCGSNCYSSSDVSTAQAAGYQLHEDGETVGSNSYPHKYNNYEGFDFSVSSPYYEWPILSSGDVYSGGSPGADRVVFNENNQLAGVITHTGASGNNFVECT
Sequence of Intestinal-type alkaline phosphatase (Homo sapiens, UniProt P09923) (P09923 whole entry): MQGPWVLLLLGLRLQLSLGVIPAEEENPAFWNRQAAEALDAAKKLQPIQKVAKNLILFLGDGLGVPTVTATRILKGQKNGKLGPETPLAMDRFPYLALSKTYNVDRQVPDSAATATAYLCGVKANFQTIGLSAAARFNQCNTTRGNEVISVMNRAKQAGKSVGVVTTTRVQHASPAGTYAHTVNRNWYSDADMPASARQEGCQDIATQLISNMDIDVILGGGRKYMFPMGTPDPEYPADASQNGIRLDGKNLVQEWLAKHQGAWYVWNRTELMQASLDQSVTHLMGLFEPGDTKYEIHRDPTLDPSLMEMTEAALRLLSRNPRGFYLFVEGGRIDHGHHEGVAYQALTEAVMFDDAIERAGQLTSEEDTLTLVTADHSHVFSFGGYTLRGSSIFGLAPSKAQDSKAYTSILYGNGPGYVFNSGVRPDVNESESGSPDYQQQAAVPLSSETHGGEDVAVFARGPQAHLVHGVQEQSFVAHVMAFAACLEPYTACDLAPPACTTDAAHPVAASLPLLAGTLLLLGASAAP
Sequence of Bifunctional protein GlmU (P9WMN3 whole entry): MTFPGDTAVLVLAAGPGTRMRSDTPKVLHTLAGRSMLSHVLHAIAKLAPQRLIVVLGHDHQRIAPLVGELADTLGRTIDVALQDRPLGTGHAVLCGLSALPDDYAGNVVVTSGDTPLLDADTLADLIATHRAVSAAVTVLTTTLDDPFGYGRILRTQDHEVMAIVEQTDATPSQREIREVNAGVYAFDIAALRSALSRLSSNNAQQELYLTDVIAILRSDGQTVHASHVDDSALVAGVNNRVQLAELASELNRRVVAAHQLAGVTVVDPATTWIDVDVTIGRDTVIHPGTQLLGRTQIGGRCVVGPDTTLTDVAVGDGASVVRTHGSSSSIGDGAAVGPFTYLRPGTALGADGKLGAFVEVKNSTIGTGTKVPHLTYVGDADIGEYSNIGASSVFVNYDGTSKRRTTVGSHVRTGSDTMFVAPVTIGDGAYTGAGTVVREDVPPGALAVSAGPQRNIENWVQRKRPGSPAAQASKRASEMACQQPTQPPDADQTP
Sequence of Induced myeloid leukemia cell differentiation protein Mcl-1 (Q07820 whole entry): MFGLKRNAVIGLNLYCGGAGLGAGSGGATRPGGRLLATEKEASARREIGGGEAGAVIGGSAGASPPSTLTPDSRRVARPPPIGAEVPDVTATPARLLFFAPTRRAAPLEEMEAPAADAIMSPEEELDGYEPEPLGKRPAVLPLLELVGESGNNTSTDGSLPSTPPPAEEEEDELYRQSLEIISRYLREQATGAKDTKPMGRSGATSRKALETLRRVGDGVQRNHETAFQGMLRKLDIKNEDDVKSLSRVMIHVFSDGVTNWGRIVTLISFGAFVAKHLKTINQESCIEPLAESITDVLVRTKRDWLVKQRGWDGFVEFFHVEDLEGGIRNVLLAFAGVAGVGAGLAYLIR
Sequence of Large T antigen (P03070 whole entry): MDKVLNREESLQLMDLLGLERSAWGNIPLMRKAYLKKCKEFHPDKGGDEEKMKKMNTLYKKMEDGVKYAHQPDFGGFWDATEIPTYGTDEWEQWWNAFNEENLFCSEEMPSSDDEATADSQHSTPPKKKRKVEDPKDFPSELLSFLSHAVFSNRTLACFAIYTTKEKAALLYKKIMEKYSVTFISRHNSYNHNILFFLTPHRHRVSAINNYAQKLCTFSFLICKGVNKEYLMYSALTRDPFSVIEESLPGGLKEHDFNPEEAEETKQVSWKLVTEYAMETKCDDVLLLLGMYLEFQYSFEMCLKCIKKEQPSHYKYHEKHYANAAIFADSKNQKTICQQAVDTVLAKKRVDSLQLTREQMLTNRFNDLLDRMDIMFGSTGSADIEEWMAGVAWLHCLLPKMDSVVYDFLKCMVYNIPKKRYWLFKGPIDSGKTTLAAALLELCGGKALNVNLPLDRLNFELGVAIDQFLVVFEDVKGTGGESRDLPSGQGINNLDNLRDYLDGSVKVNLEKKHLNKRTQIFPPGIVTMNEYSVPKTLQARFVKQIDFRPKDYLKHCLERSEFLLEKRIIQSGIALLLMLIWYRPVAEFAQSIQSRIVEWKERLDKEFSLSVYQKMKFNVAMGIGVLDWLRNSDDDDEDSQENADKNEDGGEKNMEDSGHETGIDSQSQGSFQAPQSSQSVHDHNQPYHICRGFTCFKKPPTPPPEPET
Sequence of Phospholipase A2 (P04054 whole entry): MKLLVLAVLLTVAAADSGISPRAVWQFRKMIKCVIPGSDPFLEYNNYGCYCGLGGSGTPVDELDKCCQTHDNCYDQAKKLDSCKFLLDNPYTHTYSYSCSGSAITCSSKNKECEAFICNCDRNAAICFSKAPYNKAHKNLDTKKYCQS

What is called IC50 is the concentration at which inhibition is half-maximal. As for `O=C(O)c1ccc(-c2ccc(/C=c3\sc4nc5ccccc5n4c3=O)o2)cc1`, the IC50 was 3.26 µM (active) in assay [1]; > 100 µM (not active) in assay [2]; 8.6 µM (active) in assay [3]; 33.5 µM (active) in assay [4]; 6.21 µM (active) in assay [5]; 5.78 µM (active) in [6]. In assay [7], the IC50 is 6.59 µM (active).

One may read the AC50 as the concentration giving half of the maximal activity seen. As a reminder, the EC50 is the concentration giving half of the maximal effect. `O=C1/C(=C/C=C/c2ccco2)SC(=S)N1NS(=O)(=O)c1ccccc1`: the IC50 in [8] is 22.6 µM (active); in assay [9], 18.5 µM (not active); in assay [10], 25.4 µM (active); in assay [11] it was 20.8 µM (not active); in [12], 8.28 µM (not active); in [13] it was 49.6 µM (active). The IC50 was 3.1 µM (active) in assay [14], 7.13 µM (active) in assay [20] and 13 µM (active) in assay [21]. For the same compound, the AC50 in assay [15] is > 350 µM (inactive); in assay [16], 177 µM (active). Moreover, the EC50 is > 100 µM (inactive) in assay [17], 3.13 µM (active) in assay [18] and > 100 µM (inactive) in [19].

Consider `Cc1ccc(S(=O)(=O)N2CCc3ccc(C(=O)NCCN(Cc4ccccc4)C(C)C)cc3C2)cc1`, for which the IC50 in assay [22] was 2.89 µM (active); in [23], 10.2 µM (inactive); in assay [24], > 32 µM (inactive); in assay [25] it was > 32 µM (inactive).
